According to patent publication US20190367516A1 (Bayer Pharma Aktiengesellschaft, priority 2015, published 2019):
Where two headings read alike, the source gives them in different places.

Assays:
human M2 receptor [1] = biological target: T1, human M2 receptor (Homo sapiens, UniProt P08172); type: cell-based; details: α >1 = positive cooperativity
T1 sequence (P08172 1-466): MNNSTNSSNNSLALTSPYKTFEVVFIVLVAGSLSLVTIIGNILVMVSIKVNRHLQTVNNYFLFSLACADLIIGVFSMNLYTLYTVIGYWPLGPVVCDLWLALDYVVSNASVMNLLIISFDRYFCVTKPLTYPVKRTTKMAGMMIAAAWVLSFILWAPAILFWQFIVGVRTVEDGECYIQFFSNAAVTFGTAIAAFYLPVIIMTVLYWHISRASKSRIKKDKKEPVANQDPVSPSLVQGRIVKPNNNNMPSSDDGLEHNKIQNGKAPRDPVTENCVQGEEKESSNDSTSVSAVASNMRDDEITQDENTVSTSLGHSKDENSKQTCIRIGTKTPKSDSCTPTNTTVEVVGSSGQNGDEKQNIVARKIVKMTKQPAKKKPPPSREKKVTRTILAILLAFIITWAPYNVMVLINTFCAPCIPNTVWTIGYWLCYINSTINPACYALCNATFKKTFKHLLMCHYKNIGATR

anaesthetized rats = assay: Effects on the heart rate in anaesthetized rats (B-9); type: in vivo, rat; details: i.v. infusion via jugular vein over 5 min, dose not given, in some cases means of several determinations
Procedure: B-9. Effects of the Test Substances on the Heart Rate in Anaesthetized Rats
Male rats of the strain (WI) WU Br from the breeder Charles River are anaesthetized initially with a 4-5% isoflurane inhalation for approx. 3 min. Subsequently, anaesthesia is maintained using a 1.5% isoflurane inhalation. For this purpose, the anaesthetized animals are fixed on a heated operating plate. By means of visual inspection and between toe reflex, the depth of anaesthesia is checked.
For the application of the test substance, an i.v. route into the jugular vein is used. A caudal to cranial skin incision is then made longitudinally and both the cervical musculature and the salivary glands are severed. The right common carotid artery is exposed and blood supply is arrested both proximally and distally. Using microinstrumentation, a TIP catheter (1.2 F) is introduced into the vessel in order to measure the arterial pressure and the heart rate.
Initially, both parameters are monitored for 10 min in the basal state without substance addition. The substances to be investigated are dissolved in suitable solvent mixtures and subsequently administered at various dosages to a group of animals in each case via the jugular vein by an infusion pump over 5 min. A solvent-treated group is used as control under the same experimental conditions. The arterial blood pressure and heart rate with substance addition is determined for 20 min. The data are registered with the PowerLab system (AD instruments) and evaluated using the LabChart program (AD instruments).
The values determined in this manner for the percentage decrease in heart rate for individual working examples are given in Table 4 below (in some cases as means of a plurality of independent individual determinations): […]

human M2 receptor [2] = biological target: T1, human M2 receptor; details: for Efficiency: boosting of the acetylcholine effect at EC20 acetylcholine concentration
[3] = shift in the acetylcholine dose-response curve (Allosteric EC50 shift, GraphPad PRISM)
[4] = Receptor activity EC50, M2-GIRK1/4 activation test, acetylcholine at EC20, allosteric potency, in some cases mean values from two or more determinations
[5] = shift of acetylcholine dose-response curve (Allosteric EC50 shift)
[6] = Receptor activity EC50, allosteric potency at EC20 acetylcholine, M2-GIRK1/4 reporter cells, in some cases mean of two or more determinations
[7] = read-out: Efficiency, boosting of the acetylcholine effect at EC20 acetylcholine concentration, M2-GIRK1/4 reporter cells

| Cooperativity (alpha factor) (human M2 receptor [1]; [3]) | EC50 (human M2 receptor [2]; [4]) | Cooperativity (alpha factor) (human M2 receptor [1]; [5]) | EC50 (human M2 receptor [2]; [6]) | Emax (human M2 receptor [2]; [7]) | Efficiency (human M2 receptor [2]; M2-GIRK1/4 reporter cells) | SMILES | Reduction in heart rate (%) (anaesthetized rats) | Emax (human M2 receptor [2]; read-out: Efficiency) |
| --- | --- | --- | --- | --- | --- | --- | --- | --- |
| 29 | 0.041 µM | – | – | – | – | C[C@H](NC(=O)c1cn(-c2c(F)cc(F)cc2F)c2nc(N3C[C@@H](O)CC3=O)ccc2c1=O)C(F)(F)F [Example 330, 7-[(4S)-4-Hydroxy-2-oxopyrrolidin-1-yl]-4-oxo-1-(2,4,6-trifluorophenyl)-N-[(2S)-1,1,1-trifluoropropan-2-yl]-1,4-dihydro-1,8-naphthyridine-3-carboxamide] | 9% | – |
| 47 | 0.037 µM | – | – | – | – | O=C(N[C@@H](C1CC1)C(F)(F)F)c1cn(-c2c(F)cccc2F)c2nc(N3C[C@@H](O)CC3=O)ccc2c1=O (single isomer, unassigned) [Example 297] | 10% | – |
| 43 | 0.04 µM | – | – | – | – | O=C(N[C@H](C1CC1)C(F)(F)F)c1cn(-c2ccc(F)cc2F)c2nc(N3C[C@@H](O)CC3=O)ccc2c1=O [Example 271, N-[(1R)-1-Cyclopropyl-2,2,2-trifluoroethyl]-1-(2,4-difluorophenyl)-7-[(4S)-4-hydroxy-2-oxopyrrolidin-1-yl]-4-oxo-1,4-dihydro-1,8-naphthyridine-3-carboxamide] | 8% | – |
| – | – | 36 | 0.002 µM | 100% | – | CCC(NC(=O)c1cn(-c2c(F)cc(F)cc2F)c2nc(N3C[C@@H](O)CC3=O)ccc2c1=O)C(F)(F)C(F)(F)F (single isomer, unassigned) [Example 520] | 15% | – |
| 32 | 0.014 µM | – | – | – | – | CC(C)(CC(F)(F)F)NC(=O)c1cn(-c2c(F)cc(F)cc2F)c2nc(N3C[C@@H](O)[C@H](O)C3)ccc2c1=O [Example 370, 7-[(3R,4R)-3,4-Dihydroxypyrrolidin-1-yl]-4-oxo-N-(4,4,4-trifluoro-2-methylbutan-2-yl)-1-(2,4,6-trifluorophenyl)-1,4-dihydro-1,8-naphthyridine-3-carboxamide] | 12% | – |
| – | – | 40 | 0.009 µM | 100% | – | O=C(N[C@H](C1CC1)C(F)(F)F)c1cn(-c2c(F)cc(F)cc2Cl)c2nc(N3C[C@@H](O)CC3=O)ccc2c1=O [Example 414, 1-(2-Chloro-4,6-difluorophenyl)-N-[(1R)-1-cyclopropyl-2,2,2-trifluoroethyl]-7-[(4S)-4-hydroxy-2-oxopyrrolidin-1-yl]-4-oxo-1,4-dihydro-1,8-naphthyridine-3-carboxamide] | 16% | – |
| – | – | 32 | 0.005 µM | – | 100.0% | CC[C@H](NC(=O)c1cn(-c2c(F)cc(F)cc2Cl)c2nc(N3C[C@@H](O)CC3=O)ccc2c1=O)C(F)(F)F (single isomer, unassigned) [Example 400] | 11% | – |
| 24 | 0.023 µM | – | – | – | – | CC[C@@H](NC(=O)c1cn(-c2ccc(F)cc2F)c2nc(N3CC[C@H](F)C3)ccc2c1=O)C(F)(F)F [Example 189, 1-(2,4-Difluorophenyl)-7-[(3S)-3-fluoropyrrolidin-1-yl]-4-oxo-N-[(2R)-1,1,1-trifluorobutan-2-yl]-1,4-dihydro-1,8-naphthyridine-3-carboxamide] | 7% | – |
| 25 | 0.023 µM | – | – | – | – | CC[C@@H](NC(=O)c1cn(-c2ccc(F)cc2F)c2nc(N3CC4C(C3)C4(F)F)ccc2c1=O)C(F)(F)F (stereo partly drawn) [Example 28, 7-(6,6-Difluoro-3-azabicyclo[3.1.0]hex-3-yl)-1-(2,4-difluorophenyl)-4-oxo-N-[(2R)-1,1,1-trifluorobutan-2-yl]-1,4-dihydro-1,8-naphthyridine-3-carboxamide] | 9% | – |
| – | – | 31 | 0.007 µM | – | 92.2% | CC(NC(=O)c1cn(-c2c(F)cc(F)cc2F)c2nc(N3CCNC3=O)ccc2c1=O)C(F)(F)C(F)(F)F (racemic) [Example 541, 4-Oxo-7-(2-oxoimidazolidin-1-yl)-N-[3,3,4,4,4-pentafluorobutan-2-yl]-1-(2,4,6-trifluorophenyl)-1,4-dihydro-1,8-naphthyridine-3-carboxamide] | 14% | – |
| – | – | 32 | 0.007 µM | 98.5% | – | CC[C@@H](NC(=O)c1cn(-c2c(F)cc(F)cc2Cl)c2nc(N3C[C@@H](O)CC3=O)ccc2c1=O)C(F)(F)F [Example 407, 1-(2-Chloro-4,6-difluorophenyl)-7-[(4S)-4-hydroxy-2-oxopyrrolidin-1-yl]-4-oxo-N-[(2R)-1,1,1-trifluorobutan-2-yl]-1,4-dihydro-1,8-naphthyridine-3-carboxamide] | 13% | – |
| 49 | 0.028 µM | – | – | – | – | O=C(N[C@H](C1CC1)C(F)(F)F)c1cn(-c2c(F)cccc2F)c2nc(N3C[C@@H](O)CC3=O)ccc2c1=O (single isomer, unassigned) [Example 296] | 11% | – |
| – | – | 44 | 0.006 µM | 98.7% | – | CC(NC(=O)c1cn(-c2c(F)cc(F)cc2F)c2nc(N3C[C@@H](O)CC3=O)ccc2c1=O)C(F)(F)C(F)(F)F (single isomer, unassigned) [Example 530] | 13% | – |
| 54 | 0.041 µM | – | – | – | – | O=C(NC(c1ccccc1Cl)C(F)(F)F)c1cn(-c2ccc(F)cc2F)c2nc(N3C[C@@H](O)CC3=O)ccc2c1=O (single isomer, unassigned) [Example 212] | 11% | – |

| SMILES | Cooperativity (alpha factor) (human M2 receptor [1]; [3]) | EC50 (human M2 receptor [2]; [4]) | Cooperativity (alpha factor) (human M2 receptor [1]; [5]) | EC50 (human M2 receptor [2]; [6]) | Emax (human M2 receptor [2]; [7]) | Efficiency (human M2 receptor [2]; M2-GIRK1/4 reporter cells) | Reduction in heart rate (%) (anaesthetized rats) | Emax (human M2 receptor [2]; read-out: Efficiency) |
| --- | --- | --- | --- | --- | --- | --- | --- | --- |
| CC(NC(=O)c1cn(-c2c(F)cc(F)cc2F)c2nc(N3C[C@@H](O)[C@H](O)C3)ccc2c1=O)C(F)(F)C(F)(F)F (single isomer, unassigned) [Example 550] | – | – | 34 | – | – | – | 13% | 100% |
| CC[C@@H](NC(=O)c1cn(-c2c(F)cc(F)cc2F)c2nc(N3C[C@@H](O)CC3=O)ccc2c1=O)C(F)(F)F [Example 325, 7-[(4S)-4-Hydroxy-2-oxopyrrolidin-1-yl]-4-oxo-N-[(2R)-1,1,1-trifluorobutan-2-yl]-1-(2,4,6-trifluorophenyl)-1,4-dihydro-1,8-naphthyridine-3-carboxamide] | 56 | 0.007 µM | – | – | – | – | 13% | 93% |
| O=C(Nc1c(Cl)cccc1Cl)c1cn(-c2ccc(F)cc2F)c2nc(N3C[C@@H](O)CC3=O)ccc2c1=O [Example 201, N-(2,6-Dichlorophenyl)-1-(2,4-difluorophenyl)-7-[(4S)-4-hydroxy-2-oxopyrrolidin-1-yl]-4-oxo-1,4-dihydro-1,8-naphthyridine-3-carboxamide] | 39 | 0.039 µM | – | – | – | – | 6% | – |
| CC[C@H](NC(=O)c1cn(-c2c(F)cc(F)cc2F)c2nc(N3C[C@@H](O)CC3=O)ccc2c1=O)C(F)(F)F [Example 332, 7-[(4S)-4-Hydroxy-2-oxopyrrolidin-1-yl]-4-oxo-N-[(2S)-1,1,1-trifluorobutan-2-yl]-1-(2,4,6-trifluorophenyl)-1,4-dihydro-1,8-naphthyridine-3-carboxamide] | 37 | 0.02 µM | – | – | – | – | 11% | 99.2% |
| CC[C@@H](NC(=O)c1cn(-c2c(F)cccc2F)c2nc(N3C[C@@H](O)CC3=O)ccc2c1=O)C(F)(F)F [Example 275, 1-(2,6-Difluorophenyl)-7-[(4S)-4-hydroxy-2-oxopyrrolidin-1-yl]-4-oxo-N-[(2R)-1,1,1-trifluorobutan-2-yl]-1,4-dihydro-1,8-naphthyridine-3-carboxamide] | 38 | 0.018 µM | – | – | – | – | 9% | 92.8% |
